This is an account of results in patent US12281122B1, “PI3K inhibitors” (Cogent Biosciences, Inc., priority 2023, dated 2025).

For assay [1], the system named is SKBR3 (PI3Kα-Wild Type) cell line. The assay can be described thus: HTRF phospho-AKT(S473) cell assay in SKBR3 cells. Format: cell-based, human. In outline:
(§1)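 Cells plated overnight (T47D in RPMI/10% FBS/0.2 units/mL insulin; SKBR3 in McCoy's 5A/10% FBS), then given 12-point 1:3 compound series (top 5 μM T47D, 10 μM SKBR3; ≤0.5% DMSO) for 2 h at 37° C. SKBR3 stimulated with 70 ng/ml PDGF-BB for final 15 min. Lysate pAKT(S473) by HTRF; IC50 calculated.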

In assay [2] the test system is T47D (PI3Kα-H1047R) cell line. In words: HTRF phospho-AKT(S473) cell assay in T47D cells. In kind it is cell-based, human. In outline: as §1
Where [3] appears, read: Homo sapiens, SK-BR-3; HTRF phospho-AKT(S473), SKBR3 (PI3Kα-Wild Type) cells, 2 hours compound incubation, PDGF-BB stimulated.
Where [4] appears, read: Homo sapiens; HTRF phospho-AKT(S473), T47D (PI3Kα-H1047R) cells, 2 hours compound incubation.
Where [5] appears, read: Homo sapiens, SK-BR-3; SKBR3 (PI3Kα-Wild Type) cells, HTRF phospho-AKT(S473), 2 hours compound incubation, PDGF-BB stimulated.
The mark [6] stands for this setting: Homo sapiens; T47D (PI3Kα-H1047R) cells, HTRF phospho-AKT(S473), 2 hours compound incubation.

Molecules are shown by their SMILES.

As usually defined, the IC50 is the concentration that gives 50% inhibition. A higher IC50 goes with a need for much substance. Consider `Cc1cc([C@@H](C)Nc2ccc(Cl)nc2C(=O)NS(C)(=O)=O)c2nc(N3C[C@@H]4[C@H](C3)[C@H]4c3cc(C)on3)n(C)c(=O)c2c1` [Compound 665, 6-chloro-3-(((R)-1-(3,6-dimethyl-2-((1R,5S,6R)-6-(5-methylisoxazol-3-yl)-3-azabicyclo[3.1.0]hexan-3-yl)-4-oxo-3,4-dihydroquinazolin-8-yl)ethyl)amino)-N-(methylsulfonyl) picolinamide], for which the IC50 is 1000 to 5000 nM in assay [1] (setting [3]) and under 250 nM in assay [2] (setting [4]).
`Cc1cc([C@@H](C)Nc2ccc(Cl)nc2C(=O)NS(C)(=O)=O)c2nc(N3CC[C@H](Oc4ccnn4C)C3)n(C)c(=O)c2c1` [Compound 351, 6-chloro-3-(((R)-1-(3,6-dimethyl-2-((S)-3-((1-methyl-1H-pyrazol-5-yl)oxy)pyrrolidin-1-yl)-4-oxo-3,4-dihydroquinazolin-8-yl)ethyl)amino)-N-(methylsulfonyl) picolinamide]: the half-maximal inhibitory concentration (IC50) in assay [1] (setting [5]) was 1000 to 5000 nM; in assay [2] (setting [6]), under 250 nM.
Take `Cc1cc([C@@H](C)Nc2ccc(Cl)nc2C(=O)NS(C)(=O)=O)c2nc(-c3ccc4nn(CCO)cc4c3)n(C)c(=O)c2c1` [Compound 797, (R)-6-chloro-3-((1-(2-(2-(2-hydroxyethyl)-2H-indazol-5-yl)-3,6-dimethyl-4-oxo-3,4-dihydroquinazolin-8-yl)ethyl)amino)-N-(methylsulfonyl) picolinamide]: the half-inhibitory concentration (IC50) in assay [1] (setting [3]) was 1000 to 5000 nM; in assay [2] (setting [4]), under 250 nM.
Consider `Cc1cc([C@@H](C)Nc2ccc(Cl)nc2C(=O)NS(C)(=O)=O)c2nc(N3CCN(c4ncc(C#N)cc4C)CC3)n(C)c(=O)c2c1` [Compound 184, (R)-6-chloro-3-((1-(2-(4-(5-cyano-3-methylpyridin-2-yl)piperazin-1-yl)-3,6-dimethyl-4-oxo-3,4-dihydroquinazolin-8-yl)ethyl)amino)-N-(methylsulfonyl) picolinamide], for which the figures for the half-maximal inhibitory concentration (IC50) in assay [1] (setting [5]) and in assay [2] (setting [6]) were 1000 to 5000 nM and under 250 nM, respectively.
As to `Cc1cc([C@@H](C)Nc2ccc(Cl)nc2C(=O)NS(C)(=O)=O)c2nc(N3C[C@@H]4[C@H](C3)[C@H]4c3cc4ccccn4n3)n(C)c(=O)c2c1` [Compound 473], the IC50 is at least 5000 nM in assay [1] (setting [3]) and 250 to 500 nM in assay [2] (setting [4]).
`Cc1cc([C@@H](C)Nc2ccc(Cl)nc2C(=O)NS(C)(=O)=O)c2nc(N3CCc4nn(CC5CC5)cc4C3)n(C)c(=O)c2c1` [Compound 279, (R)-6-chloro-3-((1-(2-(2-(cyclopropylmethyl)-2,4,6,7-tetrahydro-5H-pyrazolo[4,3-c]pyridin-5-yl)-3,6-dimethyl-4-oxo-3,4-dihydroquinazolin-8-yl)ethyl)amino)-N-(methylsulfonyl) picolinamide]: the IC50 in assay [1] (setting [5]) was 1000 to 5000 nM; in assay [2] (setting [6]) it was under 250 nM.
As for `Cc1cc([C@@H](C)Nc2ccc(Cl)nc2C(=O)NS(C)(=O)=O)c2nc(N3C[C@@H]4C[C@H]3C[C@@H]4c3nn(C)cc3F)n(C)c(=O)c2c1` (relative stereo) [Compound 444, 6-chloro-3-(((R)-1-(2-((1R*,4S*,5R*)-5-(4-fluoro-1-methyl-1H-pyrazol-3-yl)-2-azabicyclo[2.2.1]heptan-2-yl)-3,6-dimethyl-4-oxo-3,4-dihydroquinazolin-8-yl)ethyl)amino)-N-(methylsulfonyl) picolinamide], the values for the half-maximal inhibitory concentration (IC50) in assay [1] (setting [3]) and in assay [2] (setting [4]) were at least 5000 nM and 250 to 500 nM, respectively.
With `Cc1cc([C@@H](C)Nc2ccc(Cl)nc2C(=O)NS(C)(=O)=O)c2nc(N3CCC(c4nn(C)cc4F)CC3)n(C)c(=O)c2c1` [Compound 247, (R)-6-chloro-3-((1-(2-(4-(4-fluoro-1-methyl-1H-pyrazol-3-yl)piperidin-1-yl)-3,6-dimethyl-4-oxo-3,4-dihydroquinazolin-8-yl)ethyl)amino)-N-(methylsulfonyl) picolinamide], the results for the 50% inhibitory concentration (IC50) in assay [1] (setting [5]) and in assay [2] (setting [6]) were 1000 to 5000 nM and under 250 nM, respectively.
